Test results taken from BindingDB's records for doi:10.1016/j.bioorg.2015.05.007 (Silesian University of Technology, 2015).

Target: T1, Chitin synthase 3 (Saccharomyces cerevisiae (strain ATCC 204508 / S288c), UniProt P29465)
T1 sequence (P29465 whole entry): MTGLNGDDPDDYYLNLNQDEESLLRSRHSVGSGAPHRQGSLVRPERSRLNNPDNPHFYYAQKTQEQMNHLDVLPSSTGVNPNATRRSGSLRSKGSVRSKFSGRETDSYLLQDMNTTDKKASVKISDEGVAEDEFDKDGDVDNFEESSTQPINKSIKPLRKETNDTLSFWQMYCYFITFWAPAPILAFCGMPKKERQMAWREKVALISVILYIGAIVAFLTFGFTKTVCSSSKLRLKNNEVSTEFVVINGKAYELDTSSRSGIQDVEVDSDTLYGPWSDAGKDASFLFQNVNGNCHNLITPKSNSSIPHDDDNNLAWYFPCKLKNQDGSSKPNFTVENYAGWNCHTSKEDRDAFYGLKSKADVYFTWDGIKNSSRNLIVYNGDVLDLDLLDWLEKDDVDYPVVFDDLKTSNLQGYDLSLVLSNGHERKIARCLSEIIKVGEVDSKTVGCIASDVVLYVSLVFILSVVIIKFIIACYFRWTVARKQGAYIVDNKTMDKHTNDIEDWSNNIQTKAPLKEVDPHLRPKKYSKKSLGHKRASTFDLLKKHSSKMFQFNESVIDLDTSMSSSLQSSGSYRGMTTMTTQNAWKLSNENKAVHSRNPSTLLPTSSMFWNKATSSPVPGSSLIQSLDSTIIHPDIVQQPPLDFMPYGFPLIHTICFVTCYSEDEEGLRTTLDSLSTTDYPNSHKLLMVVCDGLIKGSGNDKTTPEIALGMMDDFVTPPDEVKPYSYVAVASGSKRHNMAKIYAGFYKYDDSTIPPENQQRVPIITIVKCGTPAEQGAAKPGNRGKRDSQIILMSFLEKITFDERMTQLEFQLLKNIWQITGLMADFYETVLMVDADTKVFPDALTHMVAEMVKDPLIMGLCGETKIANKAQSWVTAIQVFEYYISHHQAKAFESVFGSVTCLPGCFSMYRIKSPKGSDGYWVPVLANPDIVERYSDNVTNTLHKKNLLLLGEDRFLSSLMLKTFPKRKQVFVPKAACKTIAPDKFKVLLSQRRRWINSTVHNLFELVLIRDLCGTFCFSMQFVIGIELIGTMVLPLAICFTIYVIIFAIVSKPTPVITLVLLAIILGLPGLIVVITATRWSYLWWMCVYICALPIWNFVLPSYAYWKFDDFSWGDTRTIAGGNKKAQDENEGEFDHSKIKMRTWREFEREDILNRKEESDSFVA
Experiment: Chitin Synthase Assays
Conditions: pH 7.5; 25 °C
Procedure: Assays were performed in 96-wells microtiter plate with flat bottom. To each well of the plate, 100 µL of WGA solution was added at 50 µg/mL. After incubation at room temperature for at least 16 h the WGA solution was removed by triple washing with distill water. Wells were then blocked by adding 300 µL of BSA blocking buffer (20 mg/mL, 50 mM Tris-HCl, pH 7.5) and incubated for 3 h at room temperature. Microtiter plates were stored until use at -20 °C in blocking buffer. Before usage plates were thawed at 25 °C and thoroughly emptied. The standard reaction mixture in total volume 100 µL contains: UDP-GlcNAc (2.0 mM), GlcNAc (40 mM), MgCl2 (5.0 mM) and digitonin (0.1% w/v) dissolved in pH 7.5 Tris-HCl buffer (50 mM) containing test compounds at a range of concentrations from 0 mM (control) to 3.0 mM. The enzymatic reactions were started by the addition of 0.2 mg/mL solution of trypsin (1-10 µL) and membrane preparation (5-20 µL). Usually four different concentrations of trypsin were te

| IC50 [µM] | SMILES |
| --- | --- |
| 3000 | O=C(CCC(=O)NCC(=O)NC[C@H]1O[C@@H](n2ccc(=O)[nH]c2=O)[C@@H](O)C1O)NCC(=O)NC[C@H]1O[C@@H](n2ccc(=O)[nH]c2=O)[C@@H](O)C1O (some centres not stated) [Dimer 15 (15)] |
| 800 | COC(=O)CCC(=O)NC[C@H]1O[C@@H](n2ccc(=O)[nH]c2=O)[C@@H](O)C1O (some centres not stated) [5'-(N-succinyl)-5'-amino-5'-deoxyuridine methyl ester (7)] |
